In patent US8492442B2, “Medicinal composition, food or drink having effect of enhancing parasympathetic nervous activity” (Suntory Holdings Limited, priority 2007, dated 2013):
“Also recorded” adds a separate entry of the source.

Legend:
[1] = tested on: kidney sympathetic nervous activity; experiment: Rat kidney sympathetic nervous activity after transduodenal administration (electrical discharge recording); assay type: in vivo; details: male Wister rats, urethane-anesthesia
Procedure: In these experiments, use was made of male Wister rats weighing about 300 to 350 g which had been preliminarily fed in a thermostatic chamber (24° C.) with a light-dark cycle of 12-hour intervals (under illumination from 8:00 to 20:00) for 1 week or longer. A single rat was employed for each nervous experiment. The animals were fed with a feed (MF: Oriental Yeast) and water ad libitum. The autonomic nervous activity were examined by fasting the rats for 5 hours on the day of the experiment and then subjecting to an abdominal surgery under urethane-anesthesia (1 g/kg, i.p.). Then, the effects of the transduodenal administration of L-phenyl lactic acid and D-phenyl lactic acid (10 μg or 100 μg) on the kidney sympathetic nervous activity were measured in accordance with the method reported by T. Yamano et al., Neurosci. Lett. 313:78-82 (2001), A. Niijima et al., Autonom. Neurosci.: Basic & Clinical 97:99-102 (2002) and M. Tanida et al., Am. J. Physiol: Regulatory, Integrative and Comparative Physiology 288:R447-R455 (2005). Namely, the sympathetic nerve projecting toward the kidney was cut before the organ and the central side was placed on a silver electrode. Thus, a change in the electrical activity was monitored. To prevent dryness, the electrode had been preliminarily dipped in a mixture of liquid paraffin and petroleum jelly for a sufficient period of time. From the initiation of the surgery to the completion of the measurement, a tube was inserted into the respiratory tract for the management of the airway. The body temperature (rat rectal temperature) was maintained at 35±0.5° C. with the use of a heater. The transduodenal administration was conducted by dissolving L-phenyl lactic acid or D-phenyl lactic acid in physiological saline to give a concentration of 10 μg/2 ml or 100 μg/2 ml, and administering 2 ml/animal of each solution at a rate of 1 ml/min through a polyethylene tube inserted into the duodenum. Electrical nervous activity thus obtained were amplified with a condenser type differential amplifier, monitored with an oscilloscope and recorded on a magnetic tape. To separate the raw data from the background noise, all of the nervous activities were converted into standard pulses by use of a slicer and a window discriminator before analyzing. Discharge frequencies were indicated on a pen recorder by using a rate meter at a reset time of 5 seconds. The data was analyzed based on the average discharge frequency per 5 seconds (pulse/5 sec) and expressed in percentage by referring the level before the administration as to 100%. A group with the administration of physiological saline was employed as a control.

blood pressure = experiment: Rat blood pressure after transduodenal administration (femoral artery cannula, transducer); assay type: in vivo; details: 100 μg, FIG. 4
Aspergillus niger = details: etc.; cited from earlier work
[2] = tested on: pathogenic Escherichia coli O-157; details: phenyl lactic acid produced by use of a lactic acid bacterium; cited from earlier work
[3] = tested on: methicillin-resistant Staphylococcus aureus; details: phenyl lactic acid produced by use of a lactic acid bacterium; cited from earlier work
[4] = tested on: stomach vagal (parasympathetic) nervous activity; experiment: Rat stomach vagal (parasympathetic) nervous activity after transduodenal administration; assay type: in vivo; details: 100 μg, FIG. 5

SMILES	effect on kidney sympathetic nervous activity ([1]; 10 μg/animal, FIG. 2)	effect on kidney sympathetic nervous activity ([1]; 100 μg/animal, FIG. 3)	effect on rat blood pressure (blood pressure)	antifungal activity (Aspergillus niger)	antibacterial effect [2]	antibacterial effect [3]	effect on rat stomach vagal (parasympathetic) nervous activity [4]
O=C(O)[C@H](O)Cc1ccccc1 [D-phenyl lactic acid, D-β-3-phenyl lactic acid]	enhanced	reduced	hypotensive effects	–	–	–	–
O=C(O)C(O)Cc1ccccc1 (stereo not shown) [phenyl lactic acid, 2-hydroxy-3-phenyl propionic acid]	–	–	–	antifungal activity	antibacterial effect	antibacterial effect	–
O=C(O)[C@@H](O)Cc1ccccc1 [L-phenyl lactic acid, L-β-3-phenyl lactic acid]	little effect	reduced; also recorded: higher reducing effect	hypotensive effects	–	–	–	enhancement
